Assay results reported in patent publication US20120329761A1, “USE OF TIGECYCLINE FOR TREATMENT OF CANCER” (UNIVERSITY HEALTH NETWORK, priority 2010, published 2012).

Key:
Type in all cases: cell-based, human
TEX cells = test: Chemical library screen, MTS assay; settings: 10 μM, 72 hours
From the text: (§1) To identify compounds active against leukemia stem cells, a library of drugs (n=312) with well-characterized pharmacokinetics and toxicology and a wide therapeutic window was compiled. This library was then screened to identify agents that reduced the viability of TEX and M9-ENL1 cells. TEX and M9-ENL1 cells were derived from lineage-depleted human cord blood cells (Lin-CB) transduced with TLS-ERG or MLL-ENL oncogenes, respectively, and, as shown previously, display properties of stem cells including hierarchal differentiation and marrow repopulation^14,16. In this screen, TEX and M9-ENL1 cells were treated with aliquots of the compounds. After incubation, cell growth and viability was measured by the MTS assay. From this screen, tigecycline was identified.
(§2) TEX, and M9-ENL-1 cells were seeded into 96-well polystyrene tissue culture plates (Corning). […] 72 (TEX) and 48 (M9-ENL-1) hours after incubation, cell growth and viability was measured by MTS assay. […]
(§3) Cell growth and viability was assessed by the MTS assay (Promega, Madison, Wis.) according to the manufacturer's instructions. Apoptosis and cell death was measured by Annexin V-fluoroscein isothiocyanate (FITC; Biovision Research Products, Mountain View, Calif.), propidium iodide staining and flow cytometry according to the manufacturer's instructions and as previously described^30. […]

M9-ENL1 cells = test: Chemical library screen, MTS assay; settings: 10 μM, 48 hours
From the text: as §1, §2, §3

[1] = system: Cox-1, Cox-2, Cox-4, grp78, XIAP; test: Immunoblotting of mitochondrially and cytosolically translated proteins; settings: TEX, OCI-AML2 and two AML patients' cells, 2.5 μM and 5 μM
Method: FIG. 4. […] (A) Cells from TEX, OCI-AML2 and two primary AML patients were treated with increasing concentrations (2.5 μM and 5 μM) of tigecycline for 36 and 48 hours of tigecycline. Total proteins were extracted and analyzed by western blotting for Cox-1, Cox-2, Cox-4, grp78, XIAP, actin and tubulin. (B) TEX and AML patient cells were treated with increasing concentrations (2.5 μM and 5 μM) of tigecycline. Cox-1, Cox-2, and Cox-4 mRNA expression relative 18S was determined by quantitative RT-PCR. Data is shown as mean±SD. (C) TEX cells were treated with increasing concentrations of tigecycline and chloramphenicol (CAP) for 72 hours. Complex I, II and IV enzyme activity relative to citrate synthase activity was determined as described in materials and methods. (D) Cells from TEX, primary AML patients, and normal donors were treated with increasing concentrations of tigecycline. Mitochondrial membrane potential (Δψ) was determined by staining cells with JC-1 dye, and flow cytometry analysis (Red/Green ratio). Reactive oxygen species generation (ROS) was determined by staining with h2-DCFDA and Dihydroethidium (DHE).
Total cell lysates were prepared from cells as described previously^32. […] Protein concentrations were measured by the DC Protein assay. […]

CN(C)c1cc(NC(=O)CNC(C)(C)C)c(O)c2c1C[C@H]1C[C@H]3[C@H](N(C)C)C(O)=C(C(N)=O)C(=O)[C@@]3(O)C(O)=C1C2=O [tigecycline]
screen result, cell growth and viability (TEX cells): identified | screen result, cell growth and viability (M9-ENL1 cells): identified | expression of nuclear-encoded proteins XIAP or grp78 [1]: did not alter | expression of Cox subunit proteins ([1]; 36 and 48 hours): preferential decrease of mitochondrially-translated subunits I and II, over nuclear-translated subunit IV
